Assay results from patent US11046716B2, “Beta-lactamase inhibitors” (priority 2015, dated 2021).
pIC50: −log10 of the molar value.

Experiments:
[1] = test system: P. aeruginosa expressing the Class B carbapenemase VIM-2; experiment: Broth microdilution MIC assay with meropenem, P. aeruginosa VIM-2; format: cell-based; settings: Fixed Mero (meropenem) 4 μg/mL; P. aerug. 2775 VIM-2
Outline: (§1)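 Test compound was titrated 2-fold from 16 to 0.125 μg/mL in cation-adjusted Mueller Hinton broth against a fixed 4 μg/ml β-lactam overlay. Plates were inoculated per CLSI broth microdilution, incubated 16-20 hours at 37° C, and the MIC of the test compound was read visually.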

[2] = test system: E. coli expressing the Class A Extended Spectrum Beta-Lactamase (ESBL) CTX-M-15; experiment: Broth microdilution MIC assay with ceftazidime, E. coli CTX-M-15; format: cell-based; settings: Fixed CAZ (ceftazidime) 4 μg/mL; E. coli ESBL4 CTX-M-15
Outline: as §1

AmpC = biological target: T1, AmpC (Enterobacter cloacae, UniProt P05364); experiment: β-lactamase enzyme inhibition assay, p99 AmpC (nitrocefin substrate); format: biochemical
T1 construct: made in house; host or cells: E. coli BL21(DE3)
Outline: (§2)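 Native untagged β-lactamases were expressed in E. coli BL21(DE3), then purified by cation exchange and gel filtration. Enzyme was preincubated with inhibitor for 15 min at 37 °C before substrate was added. IC50 was taken from initial hydrolysis rates relative to no-inhibitor controls.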

[3] = test system: E. cloacae expressing the Class C P99; experiment: Broth microdilution MIC assay with ceftazidime, E. cloacae P99; format: cell-based; settings: Fixed CAZ (ceftazidime) 4 μg/mL; E. cl. 144200 p99 AmpC
Outline: as §1

[4] = test system: K. pneumoniae expressing the Class A carbapenemase KPC-2; experiment: Broth microdilution MIC assay with meropenem, K. pneumoniae KPC-2; format: cell-based; settings: Fixed Mero (meropenem) 4 μg/mL; K. p. 156319 KPC-3
Outline: as §1

KPC-2 = biological target: T2, KPC-2 (Klebsiella pneumoniae, UniProt Q9F663); experiment: β-lactamase enzyme inhibition assay, KPC-2 (imipenem substrate); format: biochemical; settings: Class A; imipenem substrate, 300 nm; read-out: KPC-2
T2 construct: made in house; host or cells: E. coli BL21(DE3)
Outline: as §2, with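 “added. Imipenem (A300) served KPC-2 and cefotaxime (A260) served SHV-5.” for “added.”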

VIM-2 = biological target: T3, VIM-2 (Escherichia coli, UniProt Q5U7L7); experiment: β-lactamase enzyme inhibition assay, VIM-2 (nitrocefin substrate); format: biochemical; settings: Class B; nitrocefin substrate, 486 nm; read-out: VIM-2
T3 construct: made in house; host or cells: E. coli BL21(DE3)
Outline: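 Purified VIM-2 (Q sepharose anion exchange, Hepes pH 7.5, >90% pure) was preincubated with inhibitor at 37 °C for 15 min, then nitrocefin added at 100 μM final. Absorbance at 486 nm was followed for 10 min; IC50 was taken from maximum hydrolysis rates relative to inhibitor-free controls.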

[5] = test system: K. pneumoniae expressing the class A carbapenemase KPC-2 and the class B carbapenemase VIM-4; experiment: Broth microdilution MIC assay with meropenem, K. pneumoniae KPC-2 and VIM-4; format: cell-based; settings: Fixed Mero (meropenem) 4 μg/mL; K. p. A-1797 KPC-2 VIM-4
Outline: as §1

SHV-5 = biological target: T4, SHV-5 (Klebsiella pneumoniae, UniProt P0A3M1); experiment: β-lactamase enzyme inhibition assay, SHV-5 (cefotaxime substrate); format: biochemical
T4 construct: made in house; host or cells: E. coli BL21(DE3)
Outline: as §2, with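 “added. Imipenem (A300) served KPC-2 and cefotaxime (A260) served SHV-5.” for “added.”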

OXA-48 = OXA-48 (UniProt Q6XEC0); experiment: β-lactamase enzyme inhibition assay, Class D oxacillinase; format: biochemical; settings: read-out: OXA-48
[6] = test system: K. pneumoniae producing the Class D carbapenemase OXA-48; experiment: Broth microdilution MIC assay with meropenem, K. pneumoniae OXA-48; format: cell-based; settings: Fixed Mero (meropenem) 4 μg/mL; K. p. 11978 OXA-48
Outline: as §1

T4 sequence (P0A3M1 22-286): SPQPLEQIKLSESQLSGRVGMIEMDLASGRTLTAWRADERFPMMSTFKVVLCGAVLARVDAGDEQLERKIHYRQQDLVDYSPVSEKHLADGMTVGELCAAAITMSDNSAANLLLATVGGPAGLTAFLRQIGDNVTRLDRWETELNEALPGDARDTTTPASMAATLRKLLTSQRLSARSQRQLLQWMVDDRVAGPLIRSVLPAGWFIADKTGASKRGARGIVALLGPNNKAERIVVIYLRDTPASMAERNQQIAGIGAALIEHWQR
T1 sequence (P05364 21-381): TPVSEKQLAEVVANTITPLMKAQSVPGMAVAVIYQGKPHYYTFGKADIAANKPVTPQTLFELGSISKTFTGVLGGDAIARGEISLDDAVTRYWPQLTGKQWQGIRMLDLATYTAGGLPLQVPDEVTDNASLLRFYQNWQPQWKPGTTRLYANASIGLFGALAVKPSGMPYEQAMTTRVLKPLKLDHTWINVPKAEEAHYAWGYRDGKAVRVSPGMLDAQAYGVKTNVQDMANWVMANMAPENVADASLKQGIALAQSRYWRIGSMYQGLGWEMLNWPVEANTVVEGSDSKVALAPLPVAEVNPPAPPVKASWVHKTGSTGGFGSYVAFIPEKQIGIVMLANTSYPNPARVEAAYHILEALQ
T2 sequence (Q9F663 25-293, looked up): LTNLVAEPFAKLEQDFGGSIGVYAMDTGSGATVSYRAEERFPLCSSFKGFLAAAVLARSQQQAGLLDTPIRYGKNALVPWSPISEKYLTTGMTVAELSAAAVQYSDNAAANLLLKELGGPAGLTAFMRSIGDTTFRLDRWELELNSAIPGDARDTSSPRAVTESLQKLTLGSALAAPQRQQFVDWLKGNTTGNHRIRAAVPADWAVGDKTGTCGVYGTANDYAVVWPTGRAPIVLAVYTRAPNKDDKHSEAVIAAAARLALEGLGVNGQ

Row | Structure (SMILES) | MIC (μg/mL) of Exemplary Compounds in presence of fixed β-lactams: P. aerug. 2775 VIM-2 [1] | MIC (μg/mL) of Exemplary Compounds in presence of fixed β-lactams: E. coli ESBL4 CTX-M-15 [2] | pIC50 (AmpC) | MIC (μg/mL) of Exemplary Compounds in presence of fixed β-lactams: E. cl. 144200 p99 AmpC [3] | MIC (μg/mL) of Exemplary Compounds in presence of fixed β-lactams: K. p. 156319 KPC-3 [4] | pIC50 (KPC-2) | pIC50 (VIM-2) | MIC (μg/mL) of Exemplary Compounds in presence of fixed β-lactams: K. p. A-1797 KPC-2 VIM-4 [5] | pIC50 (SHV-5) | pIC50 (OXA-48) | MIC (μg/mL) of Exemplary Compounds in presence of fixed β-lactams: K. p. 11978 OXA-48 [6]
1 | O=C(Cn1cc2c(n1)CNC2)N[C@H]1Cc2cccc(C(=O)O)c2OB1O [Example 57, (R)-3-(2-(5,6-dihydropyrrolo[3,4-c]pyrazol-2(4H)-yl)acetamido)-2-hydroxy-3,4-dihydro-2H-benzo[e][1,2]oxaborinine-8-carboxylic acid] | B (B represents an MIC between 1 and 16 μg/mL inclusive) | C (C represents an MIC of <1 μg/mL) | > 7.00 | C (C represents an MIC of <1 μg/mL) | C (C represents an MIC of <1 μg/mL) | > 7.00 | 6.00 to 7.00 | B (B represents an MIC between 1 and 16 μg/mL inclusive) | > 7.00 | 5.00 to 6.00 | B (B represents an MIC between 1 and 16 μg/mL inclusive)
2 | Nc1cnn(CC(=O)N[C@H]2Cc3cccc(C(=O)O)c3OB2O)c1 [Example 58, (R)-3-(2-(4-amino-1H-pyrazol-1-yl)acetamido)-2-hydroxy-3,4-dihydro-2H-benzo[e][1,2]oxaborinine-8-carboxylic acid] | B (B represents an MIC between 1 and 16 μg/mL inclusive) | C (C represents an MIC of <1 μg/mL) | > 7.00 | C (C represents an MIC of <1 μg/mL) | B (B represents an MIC between 1 and 16 μg/mL inclusive) | > 7.00 | 6.00 to 7.00 | B (B represents an MIC between 1 and 16 μg/mL inclusive) | > 7.00 | 6.00 to 7.00 | B (B represents an MIC between 1 and 16 μg/mL inclusive)
3 | NCCn1cc(C(=O)N[C@H]2Cc3cccc(C(=O)O)c3OB2O)nn1 [Example 59, (R)-3-(1-(2-aminoethyl)-1H-1,2,3-triazole-4-carboxamido)-2-hydroxy-3,4-dihydro-2H-benzo[e][1,2]oxaborinine-8-carboxylic acid] | C (C represents an MIC of <1 μg/mL) | C (C represents an MIC of <1 μg/mL) | > 7.00 | C (C represents an MIC of <1 μg/mL) | B (B represents an MIC between 1 and 16 μg/mL inclusive) | > 7.00 | > 7.00 | B (B represents an MIC between 1 and 16 μg/mL inclusive) | > 7.00 | 5.00 to 6.00 | A (A represents an MIC>16 μg/mL)
4 | CC(C)(C(=O)N[C@H]1Cc2cccc(C(=O)O)c2OB1O)n1cc(CNCCN)nn1 [Example 60, (R)-3-(2-(4-(((2-aminoethyl)amino)methyl)-1H-1,2,3-triazol-1-yl)-2-methylpropanamido)-2-hydroxy-3,4-dihydro-2H-benzo[e][1,2]oxaborinine-8-carboxylic acid] | C (C represents an MIC of <1 μg/mL) | B (B represents an MIC between 1 and 16 μg/mL inclusive) | > 7.00 | C (C represents an MIC of <1 μg/mL) | B (B represents an MIC between 1 and 16 μg/mL inclusive) | 6.00 to 7.00 | > 7.00 | C (C represents an MIC of <1 μg/mL) | > 7.00 | > 7.00 | B (B represents an MIC between 1 and 16 μg/mL inclusive)
5 | NCCONC(=O)c1cn(CC(=O)N[C@H]2Cc3cccc(C(=O)O)c3OB2O)nn1 [Example 61, (R)-3-(2-(4-((2-aminoethoxy)carbamoyl)-1H-1,2,3-triazol-1-yl)acetamido)-2-hydroxy-3,4-dihydro-2H-benzo[e][1,2]oxaborinine-8-carboxylic acid] | C (C represents an MIC of <1 μg/mL) | C (C represents an MIC of <1 μg/mL) | > 7.00 | C (C represents an MIC of <1 μg/mL) | B (B represents an MIC between 1 and 16 μg/mL inclusive) | > 7.00 | 6.00 to 7.00 | B (B represents an MIC between 1 and 16 μg/mL inclusive) | > 7.00 | 6.00 to 7.00 | B (B represents an MIC between 1 and 16 μg/mL inclusive)
6 | Nc1cc(-c2cn(CC(=O)N[C@H]3Cc4cccc(C(=O)O)c4OB3O)nn2)ccn1 [Example 62, (R)-3-(2-(4-(2-aminopyridin-4-yl)-1H-1,2,3-triazol-1-yl)acetamido)-2-hydroxy-3,4-dihydro-2H-benzo[e][1,2]oxaborinine-8-carboxylic acid] | B (B represents an MIC between 1 and 16 μg/mL inclusive) | C (C represents an MIC of <1 μg/mL) | > 7.00 | C (C represents an MIC of <1 μg/mL) | C (C represents an MIC of <1 μg/mL) | > 7.00 | 6.00 to 7.00 | A (A represents an MIC>16 μg/mL) | > 7.00 | > 7.00 | B (B represents an MIC between 1 and 16 μg/mL inclusive)
7 | NCCSCc1cn(CC(=O)N[C@H]2Cc3cccc(C(=O)O)c3OB2O)nn1 [Example 63, (R)-3-(2-(4-(((2-aminoethyl)thio)methyl)-1H-1,2,3-triazol-1-yl)acetamido)-2-hydroxy-3,4-dihydro-2H-benzo[e][1,2]oxaborinine-8-carboxylic acid] | C (C represents an MIC of <1 μg/mL) | C (C represents an MIC of <1 μg/mL) | > 7.00 | C (C represents an MIC of <1 μg/mL) | C (C represents an MIC of <1 μg/mL) | > 7.00 | 6.00 to 7.00 | B (B represents an MIC between 1 and 16 μg/mL inclusive) | > 7.00 | 6.00 to 7.00 | B (B represents an MIC between 1 and 16 μg/mL inclusive)
8 | Nc1nc(=O)c(Cc2cn(CC(=O)N[C@H]3Cc4cccc(C(=O)O)c4OB3O)nn2)c(N)[nH]1 [Example 64, (R)-3-(2-(4-((2,6-diamino-4-oxo-1,4-dihydropyrimidin-5-yl)methyl)-1H-1,2,3-triazol-1-yl)acetamido)-2-hydroxy-3,4-dihydro-2H-benzo[e][1,2]oxaborinine-8-carboxylic acid] | B (B represents an MIC between 1 and 16 μg/mL inclusive) | C (C represents an MIC of <1 μg/mL) | > 7.00 | C (C represents an MIC of <1 μg/mL) | C (C represents an MIC of <1 μg/mL) | > 7.00 | 6.00 to 7.00 | B (B represents an MIC between 1 and 16 μg/mL inclusive) | > 7.00 | > 7.00 | B (B represents an MIC between 1 and 16 μg/mL inclusive)
